Measured values: paper PMC9144807, “Fluorine-18 Labeled Urea-Based Ligands Targeting Prostate-Specific Membrane Antigen (PSMA) with Increased Tumor and Decreased Renal Uptake” (Pharmaceuticals, 2022)
Like-named read-outs stand apart in the source and are kept apart here.

Tests used:
[1] = Fraction of intact tracer (parent) in blood and kidney by TLC; assay type: in vivo, mice; conditions: for %Parent compound in blood (TLC analysis): 60 min, mean ± SD, n = 2–5; for tissue uptake at 1 h: 60 min post-injection; for tissue uptake at 2 h: 120 min post-injection
Text: In some cases, additional blood samples and/or tissue samples after gamma counting were taken for determining the fraction of intact radiolabeled tracer (parent) using thin-layer chromatography (TLC). For these TLC determinations: tissues were placed in equal volumes of acetonitrile and homogenized, or serum was obtained from the blood samples and mixed with an equal volume of acetonitrile. Following centrifugation of the samples, supernatants were collected and the radioactive content of the supernatants and pellets were determined. The supernatants were then applied to thin-layer chromatography (TLC) plates. The TLC plates were developed [solvent system: ethyl acetate (80%), methanol (10%) and acetic acid (10%)], and exposed on a phosphorimaging plate which was scanned the next day.

[2] = test system: PC3(−) xenografts; test: In vivo biodistribution in PC3(−) xenograft mice (negative control); conditions: 60 min; for PC3(−) Tumor T:M: mean ± SE, n = 8–10
Procedure: (§1) PC3(−) (wildtype human prostate cancer cell line, PSMA negative) and PC3(+) (transfected with human PSMA) were provided by Dr. Hisataka Kobayashi. Cell lines were grown at 37 °C in 5% CO2 in RPMI-1640 supplemented with 10% FBS, 2 mM L-glutamine and Pen/Strep/Amphotericin B. PC3(+) and PC3(−) cell suspensions [2 × 10^6 cells; PBS:Matrigel (70:30)] from in vitro cell culture were subcutaneously implanted (right shoulder) into athymic mice (Athymic NCr- nu/nu, Charles River Laboratory, 4 weeks old) for use as positive and negative controls, respectively, for in vitro or in vivo studies. When tumors reached the appropriate size (>100 mg) the xenograft mice were used for in vivo biodistributions and imaging studies or the tumors were excised and further processed to obtain membrane preparations for in vitro assays as described previously.
(§2) Tumor-bearing mice (tumor weights: 0.1–0.8 g) were injected while awake via the tail vein with each of the tracers [0.74–3.7 MBq (20 to 100 µCi), 10 to 80 pmol] and euthanized (via CO2 inhalation) at selected times. […] Blood samples and tissues were excised from each animal, weighed, and radioactivity content was determined (Perkin Elmer 2480 Wizard3). Radioactivity content in the blood and each tissue was expressed as % injected dose per gram of tissue [%ID/g; (Formula (1))] and then normalized for body weight to a 20 g mouse (Formula (2)) from which Tissue:Muscle ratios [T:M; (Formula (3))] were determined as follows:(1) %ID/g =[counts per minute cpmtissue / tissue weight g]×100/cpmtotal injected dose
(§3) %ID/g (normalized to a 20 g mouse) = (%ID/g) × (body weight/20 g)(2)
(§4) (3) T:M=%ID/gtissue/%ID/gmuscle

[3] = molecular target: T1, PSMA (Homo sapiens, UniProt Q04609); test: In vitro saturation binding assay with PC3(+) tumor membrane preparations
T1 construct: expressed in transfected cells; host or cells: PC3(+) (PC3 human prostate cancer cells transfected with human PSMA), grown as xenograft tumors in athymic mice; tumor membrane preparations
T1 sequence (Q04609 whole entry): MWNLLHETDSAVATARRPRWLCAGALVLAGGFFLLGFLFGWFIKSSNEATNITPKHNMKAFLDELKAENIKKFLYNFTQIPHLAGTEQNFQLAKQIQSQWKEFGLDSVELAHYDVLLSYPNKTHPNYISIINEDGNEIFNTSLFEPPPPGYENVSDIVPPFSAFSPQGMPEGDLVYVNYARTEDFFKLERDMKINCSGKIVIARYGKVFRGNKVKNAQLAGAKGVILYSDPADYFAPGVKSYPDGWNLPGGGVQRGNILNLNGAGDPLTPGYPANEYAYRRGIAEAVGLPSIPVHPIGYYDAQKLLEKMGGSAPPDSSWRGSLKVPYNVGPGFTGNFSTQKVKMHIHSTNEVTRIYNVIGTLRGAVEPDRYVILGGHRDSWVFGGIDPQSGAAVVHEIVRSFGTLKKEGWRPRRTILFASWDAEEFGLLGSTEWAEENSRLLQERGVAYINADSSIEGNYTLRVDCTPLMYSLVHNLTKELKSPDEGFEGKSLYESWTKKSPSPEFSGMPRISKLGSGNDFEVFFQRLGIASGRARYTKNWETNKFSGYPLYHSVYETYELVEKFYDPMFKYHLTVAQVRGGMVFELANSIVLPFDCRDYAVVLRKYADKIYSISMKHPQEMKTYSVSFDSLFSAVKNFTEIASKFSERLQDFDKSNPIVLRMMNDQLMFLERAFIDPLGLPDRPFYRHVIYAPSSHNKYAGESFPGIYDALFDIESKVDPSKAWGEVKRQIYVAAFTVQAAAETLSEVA
Procedure: as §1
In vitro saturation studies were performed to determine binding affinities (Kd) and PSMA expression levels (Bmax) using tumor membrane preparations from PC3(−) and PC3(+) PSMA xenografts (human prostate cancer cell line transfected with human PSMA; PC3(+)). […] Filter papers were collected, and the radioactive content was quantified by gamma counting (PerkinElmer 2480 Wizard3). […] Aliquots of each membrane preparation were taken for the determination of the protein concentration (Bradford method).

[4] = molecular target: T1, PSMA; test: In vitro competition binding assay with [18F]DCFPyL as radioligand, PC3(+) tumor membrane preparations
[5] = test system: PC3(+) xenografts; test: In vivo biodistribution in PC3(+) xenograft mice; parameters: key to salivary gland T:M / Femur T:M / Blood T:M / Kidney T:M / Liver T:M: T:M = (%ID/g in tissue) / (%ID/g in muscle)
Procedure: as §1, §2, §3, §4

[6] = test system: PC3(+) xenografts; test: Blocking biodistribution study in PC3(+) xenografts, coinjection of non-radioactive DCFPyL; assay type: in vivo, mice; conditions: 60 min
Procedure: as §2, §3, §4

[7] = test system: PC3(+) tumor xenograft mice; test: Small animal PET imaging with ROI analysis, PC3(+) tumor xenograft mice; assay type: in vivo; conditions: 60 min post-injection
Procedure: Tumor-bearing mice were anesthetized with isoflurane/O2 (1.5–3% v/v) and imaged at various times after intravenous injection of each tracer [2.6 to 3.7 MBq (70 to 100 µCi)]. Whole body static PET images were obtained at 2 bed positions (FOV = 2.0 cm, total imaging time: 10 min) using a BioPET scanner (Bioscan Inc., Washington, DC, USA). The images were reconstructed by a 3-dimensional ordered-subsets expectation maximum (3D-OSEM).

[8] = 15 min post-injection, mean ± SE
[9] = 30 min post-injection, mean ± SE
[10] = mouse, blood, intravenous, mean ± SE, read-out: Blood uptake, parent (corrected for metabolites)
[11] = mouse, kidney, intravenous, mean ± SE, read-out: Kidney uptake, parent (corrected for metabolites)
[12] = 60 min post-injection, mean ± SE
[13] = 120 min post-injection, mean ± SE

For `O=C(O)CC[C@H](NC(=O)N[C@@H](CCCCNC(=O)CO/N=C\c1ccc([18F])cc1)C(=O)O)C(=O)O` [[^18F]1a, reference compound], the “%Parent compound in blood (TLC analysis)” value [1] was 50.2 ± 1.4%, the “PC3(−) Tumor T:M” value [2] was 1.07 ± 0.08 and the Kd ([3]; saturation assays, mean (SE), n = 3–5) was 0.238 nM. The Ki [4] was 0.1 nM, the “decrease in Ki compared to Ki of DCFPyL” value ([4]; p = 0.006) was ~ 4 fold and the “Blood T:M” value ([5]; 60 min, mean ± SE, n = 8–10) was 2.39 ± 0.14. For the same compound, the “Femur T:M” value ([5]; 60 min, mean ± SE, n = 8–10) was 0.92 ± 0.09, the “Kidney T:M” value ([5]; 60 min, mean ± SE, n = 8–10) was 507.8 ± 44.0 and the “Liver T:M” value ([5]; 60 min, mean ± SE, n = 8–10) was 35.7 ± 3.1. For the same compound, the “PC3(+) Tumor T:M” value ([5]; 60 min, mean ± SE, n = 8–10) was 103.0 ± 10.9.

With `O=C(O)CCC(NC(=O)NC(CCCCNC(=O)c1ccc([18F])nc1)C(=O)O)C(=O)O` (stereo not shown) [[^18F]DCFPyL, 2-(3-(1-carboxy-5-[(6-[^18F]fluoropyridine-3-carbonyl)-amino]-pentyl)-ureido)-pentanedioic acid, reference compound] the “Blood uptake, parent (corrected for metabolites)” value [1, 8] was 1.06 ± 0.05 %ID/g, the “Kidney uptake, parent (corrected for metabolites)” value [1, 9] was 20.18 ± 0.72 %ID/g and the “%Parent compound in blood (TLC analysis)” value [1] was 49.9 ± 10.7%. It also gave a tissue uptake at 0.5 h ([1]; mouse, blood, intravenous, 30 min post-injection, mean ± SE, read-out: Blood uptake, parent (corrected for metabolites)) of 0.4 ± 0.02 %ID/g, a tissue uptake at 1 h [1, 10] of 0.26 ± 0.02 %ID/g and a tissue uptake at 2 h [1, 10] of 0.045 ± 0.003 %ID/g. For the same compound, the tissue uptake at 0.25 h ([1]; mouse, kidney, intravenous, 15 min post-injection, mean ± SE, read-out: Kidney uptake, parent (corrected for metabolites)) was 17.1 ± 0.84 %ID/g, the tissue uptake at 1 h [1, 11] was 17.6 ± 1.48 %ID/g and the tissue uptake at 2 h [1, 11] was 3.41 ± 0.46 %ID/g. The “% of parent in blood” value ([1]; nude, mouse, in vivo) was 50-40, the “% of parent in kidney” value ([1]; nude, mouse, in vivo) was 16-7 and the “increase of liver T:M in blocked group compared to tracer-only group” value [6] was 2.7 fold. For the same compound, the “PC3(+) tumor T:M of the blocked group” value ([6]; coinjection of DCFPyL 1000×) was 50, the “decrease of PC3(+) tumor T:M in blocked group compared to non-blocked group” value ([6]; coinjection of DCFPyL 1000×) was 60% and the “decrease of kidney T:M in blocked group” value ([6]; coinjection of DCFPyL 1000×) was 96%. For the same compound, the “decrease of spleen T:M in blocked group” value ([6]; coinjection of DCFPyL 1000×) was 81%, the “liver T:M of the blocked group” value ([6]; coinjection of DCFPyL 1000×) was 27 and the “reduction in blood and most tissue uptakes (%ID/g) compared to tracer-only group” value ([6]; coinjection of DCFPyL 1000×) was greater than 50%. The “PC3(+) tumor T:M of the tracer-only group of the blocking study” value ([6]; no blocking dose) was 141, the “PC3(−) tumor uptake” value [2] was 0.3 %ID/g and the “PC3(−) tumor uptake as fraction of uptake in PC3(+) tumors” value [2] was less than 2%. The “PC3(−) Tumor T:M” value [2] was 1.50 ± 0.17, the “Bmax (PSMA expression level)” value ([3]; n = 5) was 13.95 ± 1.60 fmol/µg of protein and the “PC3(+) tumor uptake from ROI analysis of PET images” value [7] was 19 %ID/g. The “kidney uptake from ROI analysis of PET images” value [7] was 187 %ID/g, the “liver uptake from ROI analysis of PET images” value [7] was 3 %ID/g and the “PC3(+) tumor uptake” value ([5]; 15 min) was 18.6 %ID/g. For the same compound, the “salivary gland T:M” value ([5]; 15 min) was 2.7, the “Blood uptake, total radioactivity” value [5, 8] was 2.66 ± 0.12 %ID/g and the “Kidney uptake, total radioactivity” value [5, 8] was 132.9 ± 6.6 %ID/g. The “Blood uptake, total radioactivity” value [5, 9] was 1.03 ± 0.05 %ID/g, the “Kidney uptake, total radioactivity” value [5, 9] was 126.9 ± 5.6 %ID/g and the “PC3(+) tumor uptake” value ([5]; 60 min) was 25.6 %ID/g. The “Radioactivity in the blood” value ([5]; 60 min (Figure 5A)) was 0.519 %ID/g, the “Blood T:M” value ([5]; 60 min, mean ± SE, n = 8–10) was 2.29 ± 0.15 and the “Femur T:M” value ([5]; 60 min, mean ± SE, n = 8–10) was 0.90 ± 0.09. The “Kidney T:M” value ([5]; 60 min, mean ± SE, n = 8–10) was 695.1 ± 76.0, the “Liver T:M” value ([5]; 60 min, mean ± SE, n = 8–10) was 9.88 ± 7.4 and the “PC3(+) Tumor T:M” value ([5]; 60 min, mean ± SE, n = 8–10) was 124. The “Blood uptake, total radioactivity” value [5, 12] was 0.52 ± 0.06 %ID/g, the “Kidney uptake, total radioactivity” value [5, 12] was 147.7 ± 11.6 %ID/g and the “PC3(+) tumor uptake” value ([5]; 120 min) was 20.8 %ID/g. For the same compound, the “salivary gland T:M” value ([5]; 120 min) was 2.0, the “Blood uptake, total radioactivity” value [5, 13] was 0.13 ± 0.01 %ID/g and the “Kidney uptake, total radioactivity” value [5, 13] was 50.2 ± 3.6 %ID/g. For the same compound, the Femur uptake ([5]; all times 15 to 120 min) was less than 1 %ID/g, the “Femur T:M” value ([5]; all times except 120 min) was less than 1.8 and the “salivary gland radioactivity cleared” value ([5]; at 120 min) was 92%. For the same compound, the “decrease of kidney uptake from 15 to 120 min” value ([5]; mouse, in vivo) was 65%, the “decrease of salivary gland T:M from 15 to 120 min” value ([5]; mouse, in vivo) was 34% and the “increase in tumor T:M from 15 to 120 min” value ([5]; mouse, in vivo) was 11 fold.
